Consider 1 compound from article PMC8296708, “The pan HDAC inhibitor Givinostat improves muscle function and histological parameters in two Duchenne muscular dystrophy murine models expressing different haplotypes of the LTBP4 gene” (Skeletal Muscle, 2021).

Holding throughout (format): in vivo, mouse (C57BL/10ScSn-Dmd^mdx/J)
The subject of one assay is mdx mice. The assay can be described thus: Grip strength test (maximal normalized strength, FNmax) in mdx mice. From the text: For the efficacy studies, C57BL/10 J (Stock No: 000665) wild type (wt) and C57BL/10ScSn-Dmd^mdx/J (Stock No: 001801) 7–8-week-old male mice, DBA/2J wt (Stock No: 000671), and D2.B10-Dmd^mdx/J (Stock No: 013141) 6–7-week-old male mice were purchased from The Jackson Laboratories (Bar Harbor, Maine, USA). After 5 days of acclimatization in the animal facility, mice were randomized into different treatment groups based on their BW. C57BL/10J wt mice were assigned to the naive wt group (healthy mice that received no treatment, but were subjected to functional tests), whereas mdx mice were assigned to the following groups (9 mice/group; 4–5 mice/cage): naive mdx (mice that received no treatment, but were subjected to functional tests), vehicle (0.5% methylcellulose, p.o.), and Givinostat (0.1, 0.3, 1, 5, 10, 25, and 37.5 mg/kg, p.o.). DBA/2J mice were assigned to the naive wt group (healthy mice that received no treatment, but were subjected to functional tests), whereas D2.B10 mice were assigned to the following groups (12–13 mice/group; 4–5 mice/gage): vehicle (filtered tap water, p.o.), Givinostat (1, 5, 10, and 37.5 mg/kg, p.o.), prednisone 1 mg/kg, and Deflazacort 1 mg/kg (i.p.).
(§1) In the efficacy studies, Givinostat powder (ITF2357) was suspended in 0.5% methylcellulose (Sigma-Aldrich) and administered p.o. (by gavage) at the doses of 0.1, 0.3, 1, 5, 10, 25, and 37.5 mg/kg qdx5x15weeks (administration volume per mouse: 10 mL/kg) in mdx mice (see Additional Figure 1A). Vehicle-treated mdx mice received 0.5% methylcellulose suspension. Givinostat suspension was stored at + 4 °C, and it was freshly prepared every 7 days. […] Water consumption was weekly monitored throughout the entire duration of the study weighing the bottle of each cage (maximum 4 mice per cage). […] All mice were monitored daily and tolerability was evaluated on the basis of BW and clinical signs.
In both efficacy studies, the effectiveness of treatments was evaluated every week by measuring the forelimb strength by a grip strength meter (Ugo Basile SRL, Italy). BW of mdx (see Additional Figure 2) and D2.B10 mice (see Additional Figure 3) was also measured in order to normalize the absolute grip strength of each mouse with respect to its BW. […] The highest recorded value of maximal normalized strength (FNmax) obtained for each mouse at all the time points (from T0 to T15) was used for further analysis.
After taking baseline readings for behavioral assays (FNmax and distance run by the animals), mice were re-randomized based on these two parameters, also considering the previous randomization performed on their BW. […]

The subject of a further assay is plasma miRNA of mdx mice. The assay can be described thus: Whole-genome plasma miRNA expression profiling (small RNA sequencing) in mdx mice. Particulars: Givinostat 37.5 mg/kg vs vehicle. The procedure:
Blood samples were taken from the retro-orbital plexus of mice maintained under isoflurane anesthesia. Blood was placed in tubes containing 50 μL (for 1 mL of total blood) of EDTA ([…]) and then it was centrifuged at 13,300 rpm at + 4 °C for 10 min. Plasma was separated (400–500 μL) and immediately frozen in dry ice and stored at − 80 °C until analysis.
Thirteen mouse plasma samples (naive wt, n = 3; naive mdx, n = 3; vehicle, n = 4; Givinostat 37.5 mg/kg, n = 3) were delivered to Biogazelle in dry ice.
RNA was isolated using the miRNeasy Serum/Plasma Kit (Qiagen) following the manufacturer’s instructions.
Libraries for small RNA sequencing were prepared using the NEBNext small RNA library prep kit (New England Biolabs) according to the manufacturer’s instructions. […] Finally, the resulting small RNA pools were concentrated via ethanol precipitation and quantified using the Qubit 2.0 fluorometer (Thermo Fisher Scientific) prior to sequencing with read length of 75 bp on a NextSeq 500 sequencer (Illumina).
Sequencing reads were filtered based on stringent read quality control. After adapter trimming with Trimmomatic, reads were collapsed and mapped to the reference genome (GRCm38) using Bowtie. Reads up to 25 nucleotides are mapped with no mismatches, while longer reads (mainly from RNA species other than miRNAs) are mapped allowing a maximum of 2 mismatches. […]

A short description of a further assay: Body weight of mdx mice. The procedure: as §1, with “days. Probably due to the impairment of their tongue and masticatory muscles, the oral gavage procedure turned out to be difficult to perform, and chronic treatment of D2.B10 mice by this route was considered to bear a high risk of damaging the esophagus. For this reason, Givinostat was administered in the drinking water.” for “days.”
In both efficacy studies, the effectiveness of treatments was evaluated every week by measuring the forelimb strength by a grip strength meter (Ugo Basile SRL, Italy). BW of mdx (see Additional Figure 2) and D2.B10 mice (see Additional Figure 3) was also measured in order to normalize the absolute grip strength of each mouse with respect to its BW. […]

Consider `CCN(CC)Cc1ccc2cc(COC(=O)Nc3ccc(C(=O)NO)cc3)ccc2c1` [Givinostat], for which the “FNmax level on treatment day 49” value with mdx mice (37.5 mg/kg p.o., transient) is recorded as “comparable to that of wt healthy mice”. In addition, in the assay on mdx mice (0.1-37.5 mg/kg p.o. qdx5x15weeks), the “Effect on maximal normalized strength (FNmax)” value is listed as “remarkable, dose-dependent increase of the FNmax”. For the same compound, the “Dose of maximal efficacy on FNmax” value in the assay with mdx mice (p.o. qdx5x15weeks) is recorded as 37.5 mg/kg. In addition, in the assay with mdx mice (vs vehicle), the “Persistence of beneficial effect on FNmax” value is given as “remained significant up to day 105”. The “miR-92b-3p in plasma, FC” value in the assay with plasma miRNA of mdx mice (T16, significant upregulation) is 2.130. The “miR-449a-5p in plasma, FC” value in the assay on plasma miRNA of mdx mice (T16, significantly upregulated) was determined as 4.388. Besides, the Body weight in the assay “Body weight of mdx mice” (25 mg/kg, day 105 (vehicle 37.2 ± 0.8, p < 0.01)) turned out to be 32.9 ± 0.9 g; in the assay “Body weight of mdx mice” (37.5 mg/kg, day 105 (vehicle 37.2 ± 0.8, p < 0.05)), 33.1 ± 0.9 g.
